Patent publication US20230077155A1, “TETRAHYDROISOQUINOLINE COMPOUND AS POTASSIUM CHANNEL MODULATOR AND PREPARATION AND APPLICATION THEREOF” (Shanghai Zhimeng Biopharma, Inc., priority 2020, published 2023)

Key:
[1] = Pharmacokinetics of mice, single intravenous and oral administration, plasma; format: in vivo; settings: male ICR mice; for F: gavage 10 mg/kg vs intravenous; for AUC(0-inf) / AUC(0-t) / Cmax / Tmax / half-life: mouse, plasma
Experimental: Study on Pharmacokinetics of Mice
1) Research purposes: In order to obtain the pharmacokinetic characteristics and blood-brain barrier of the tested compound in male ICR mice
Six healthy male ICR mice (body weight range 18-22 g) were taken and divided into 2 groups and 3 mice/group. After fasting overnight (only oral administration group), […], blood was collected by jugular vein puncture at time points 0.083 (IV only), 0.25, 0.5, 1, 2, 4, 6 (PO only), 8 and 24 hours, and at least 0.3 mL of whole blood was collected to EDTA-K2 anticoagulant tube. Plasma was centrifuged (6000 rpm, 8 minutes, 4° C.) within half an hour and frozen at −20° C. for later use.
(§1) Experimental results: According to the blood drug concentration data obtained, the non-compartmental model of WinNonlin® 7.0 software (Pharsight, USA) was used to calculate the pharmacokinetic parameters after administration.

[2] = target: T1, KCNQ2 potassium channel (CHO-KCNQ2 cells) (Homo sapiens, UniProt O43526); experiment: Potassium ion channel opener activity test (FDSS/μCELL detection, FluxOR thallium flux); format: cell-based; settings: for Maximum agonist rate (%): highest test concentration 100 μM
T1 construct: expressed in transfected cells; host or cells: CHO cells stably expressing KCNQ2, kept under G418 selection
Experimental: Potassium Ion Channel Opener Activity Test (FDSS/μCELL Detection)
1.1 Experimental procedure
Cell preparation: CHO-KCNQ2 cells were cultured in a 175 cm^2 culture flask, and when the cell density grew to 60-80%, the culture medium was removed, washed with 7 mL PBS (Phosphate Buffered Saline) once, then 3 mL 0.25% Trypsin was added to digest. After the digestion was completed, 7 mL culture medium (90% DMEM/F12+10% FBS±500 μg/mL G418) was added to neutralize, centrifugated for 3 minutes at 800 rpm. The supernatant was aspirated, then 5 mL culture medium was added to resuspend, and then the cells were counted.
Cell plating: according to the results of cell counting, the density was adjusted to 3×10^4 cells/well. After standing at room temperature for 30 minutes, the plate was placed in a 37° C. CO2 incubator and incubated overnight for 16-18 hours. The cell density reached about 80%.
Fluorescent dye incubation: the cell culture medium was discarded, 80 μL/well loading buffer was added, and incubated in the dark at room temperature for 60 minutes. Compound incubation: the loading buffer was discarded, 80 μL/well prepared compound solution was added, and incubated in the dark at room temperature for 20 minutes.
Fluorescence data collection: FDSS/μCELL instrument was used for real-time fluorescence signal recording with excitation wavelength at 480 nm and emission wavelength at 540 nm, recorded 1 time per second, and 20 μL/well stimulation buffer was started to add after recording for 10 seconds for baseline, and then continued to record until the end of 180 seconds.
The above buffer come from a commercially available kit named FluxOR potassium ion channel assay.
20 mM DMSO compound mother liquor was prepared, 10 μL of 20 mM compound mother liquor was took into 20 μL DMSO solution, serially diluted 3 times to 8 intermediate concentrations; then the intermediate concentrations of the compound was took out and added to the test buffer, diluted for 200 times to get the final concentration to be tested, 80 μL was took out and added to the test plate.
The highest test concentration was 100 μM, followed by […], 33.33, 11.11, 3.70, 1.23, 0.41, 0.137, 0.045 μM, total 8 concentrations. Each concentration set 3 duplicate wells.
This concentration of DMSO has no effect on the KCNQ2 potassium channel.
Experimental data was analyzed by Excel 2007 and GraphPad Prism 5.0 software, and the ratio of 180 seconds was calculated to calculate the agonism effect. The agonism effect of the compound was calculated by the following formula: […]
Reagent: FluxORTM Detection Kit (Invitrogen, Cat #F0017)
The experimental data in the report must meet the following criteria: Z′ Factor>0.5
2. Results: See Table 1, wherein the smaller the EC50 is, the higher the activity of the corresponding compound is.

[3] = Pharmacokinetics of rats, single intravenous and oral administration, plasma; format: in vivo; settings: male SD rats; for AUC(0-inf) / AUC(0-t) / Cmax / Tmax / half-life: rat, plasma
Experimental: Study on Pharmacokinetics of Rats
1) Research purpose: To obtain the pharmacokinetic characteristics of the compounds to be tested in male SD rats.
Pharmacokinetic study: 6 healthy male SD rats (SPF grade) were divided into 2 groups and 3 rats/group. After fasting overnight (only oral administration group), compound A was administrated 0.3 mg/kg intravenously and 5 mg/kg orally, blood was collected by jugular vein puncture at time points 0.083 (IV only), 0.25, 0.5, 1, 2, 4, 6 (PO only), 8 and 24 hours, and at least 0.3 mL of whole blood was collected to EDTA-K2 anticoagulant tube. Plasma was centrifuged (6000 rmp, 8 minutes, 4° C.) within half an hour and frozen at −20° C. for later use.
as §1

[4] = Brain-blood ratio study in mice after single oral administration; format: in vivo; settings: mouse, brain and plasma, male ICR mice, single oral 10 mg/kg, read-out: Cerebral blood ratio; for Kp at 2 h: time point 2 h; for Kp at 4 h: time point 4 h
Experimental: Brain-blood ratio study: 6 healthy male ICR mice (body weight range 18-22 g) were taken and divided into 2 groups and 3 mice/group. After fasting overnight, the compound to be tested (10 mg/kg) was administrated orally respectively. Blood was taken through cardiac puncture at time points 2 and 4 hours, at least 0.5 mL of whole blood was collected to EDTA-K2 anticoagulant tube. Plasma was centrifuged (6000 rpm, 8 minutes, 4° C.) within half an hour and frozen at −20° C. for later use. At the same time, the brain tissue was collected, rinsed with normal saline, then sucked to dryness with absorbent paper, weighed, and frozen at −20° C. for later use.
The cerebral blood ratio is very important to nerve drugs, and it can be seen from Table 3 that the compounds of the present invention have excellent cerebral blood ratio, which will bring better drug efficacy and excellent safety. By comparing the cerebral blood ratios of compound A, compound 1, compound B and compound J, it can be seen that after the tert-butyl of compound A or compound B has been changed into […]

[5] = intravenous 1 mg/kg (footnote *)

T1 sequence (O43526 whole entry): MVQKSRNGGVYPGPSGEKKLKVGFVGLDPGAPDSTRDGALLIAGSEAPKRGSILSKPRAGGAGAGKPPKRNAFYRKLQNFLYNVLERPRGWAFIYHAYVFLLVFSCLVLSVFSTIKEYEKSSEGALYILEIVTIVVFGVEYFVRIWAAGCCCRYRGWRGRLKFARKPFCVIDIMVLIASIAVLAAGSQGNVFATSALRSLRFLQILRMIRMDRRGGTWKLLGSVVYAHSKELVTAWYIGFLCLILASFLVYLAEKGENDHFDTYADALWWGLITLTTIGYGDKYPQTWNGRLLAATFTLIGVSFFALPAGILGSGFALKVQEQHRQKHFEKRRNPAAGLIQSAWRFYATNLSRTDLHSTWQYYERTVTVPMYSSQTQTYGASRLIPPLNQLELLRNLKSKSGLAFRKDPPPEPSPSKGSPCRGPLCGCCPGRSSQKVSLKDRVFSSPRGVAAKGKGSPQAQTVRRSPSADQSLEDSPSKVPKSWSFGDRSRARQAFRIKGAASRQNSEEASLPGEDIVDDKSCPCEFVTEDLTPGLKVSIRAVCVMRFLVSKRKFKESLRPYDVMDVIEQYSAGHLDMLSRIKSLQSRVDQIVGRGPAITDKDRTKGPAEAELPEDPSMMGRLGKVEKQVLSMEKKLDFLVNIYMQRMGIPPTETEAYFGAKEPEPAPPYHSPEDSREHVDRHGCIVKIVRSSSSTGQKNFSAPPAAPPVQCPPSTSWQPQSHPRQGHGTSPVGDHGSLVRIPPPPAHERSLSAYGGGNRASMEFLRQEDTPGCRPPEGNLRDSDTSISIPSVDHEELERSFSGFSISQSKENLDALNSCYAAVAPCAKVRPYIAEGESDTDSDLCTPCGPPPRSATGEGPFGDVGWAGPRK

Row | SMILES | F [1] [%] | AUC(0-inf) ([1]; po, gavage 10 mg/kg) [ng·h/mL] | AUC(0-t) ([1]; po, gavage 10 mg/kg) [ng·h/mL] | Cmax ([1]; po, gavage 10 mg/kg) [ng/mL] | Tmax ([1]; po, gavage 10 mg/kg) [min] | half-life ([1]; po, gavage 10 mg/kg) [h] | EC50 [2] [nM] | Maximum agonist rate (%) [2] [%] | Kp at 2 h [4] | Kp at 4 h [4] | other results
1 | Cc1cc2c(c(C)c1NC(=O)CC1(C)CC1)CCN(c1ccc(F)cc1)C2 [Compound I] | 24.6 | 539 | 528 | 192 | 19.8 | 3.86 | 440 | 38.3 | 6 | 5.8 | AUC(0-inf) ([1]; intravenous 0.5 mg/kg): 108 ng·h/mL; AUC(0-t) ([1]; intravenous 0.5 mg/kg): 107 ng·h/mL; Cmax ([1]; intravenous 0.5 mg/kg): 299 ng/mL; Tmax ([1]; intravenous 0.5 mg/kg): 4.8 min; half-life ([1]; intravenous 0.5 mg/kg): 0.86 h; F ([3]; gavage 5 mg/kg vs intravenous 0.3 mg/kg): 30.11%; AUC(0-inf) ([3]; po, gavage 5 mg/kg): 855 ng·h/mL; AUC(0-t) ([3]; po, gavage 5 mg/kg): 822 ng·h/mL; Cmax ([3]; po, gavage 5 mg/kg): 221 ng/mL; Tmax ([3]; po, gavage 5 mg/kg): 30 min; half-life ([3]; po, gavage 5 mg/kg): 375 min; AUC(0-inf) ([3]; intravenous 0.3 mg/kg): 166 ng·h/mL; AUC(0-t) ([3]; intravenous 0.3 mg/kg): 164 ng·h/mL; Cmax ([3]; intravenous 0.3 mg/kg): 345 ng/mL; Tmax ([3]; intravenous 0.3 mg/kg): 4.8 min; half-life ([3]; intravenous 0.3 mg/kg): 104 min
2 | Cc1cc2c(c(C)c1NC(=O)CC1(C)CC1)CCN(c1ccc(F)cc1F)C2 [Compound J] | 19.18 | 703 | 693 | 374 | 15 | 1.81 | – | – | 4.1 | 3.2 | AUC(0-inf) [1, 5]: 366 ng·h/mL; AUC(0-t) [1, 5]: 361 ng·h/mL; Cmax [1, 5]: 942 ng/mL; Tmax [1, 5]: 4.8 min; half-life [1, 5]: 0.88 h
3 | Cc1cc2c(c(C)c1NC(=O)CC1(C)CC1)CCN(c1ccc(C#N)cc1)C2 [Compound O] | – | – | – | – | – | – | 780 | 29.43 | – | – | –
4 | Cc1ccc(N2CCc3c(cc(C)c(NC(=O)CC(C)(C)C)c3C)C2)cc1 [Compound U] | – | – | – | – | – | – | 330 | 52.3 | – | – | –
5 | Cc1cc2c(c(C)c1NC(=O)CC1(C)CC1)CCN(c1ccccc1)C2 [Compound V] | – | – | – | – | – | – | 340 | 45.76 | – | – | –
6 | Cc1cc2c(c(C)c1NC(=O)CC1(C)CC1)CCN(c1ccc(Br)cc1)C2 [Compound Y] | – | – | – | – | – | – | 200 | 37.96 | – | – | –

Continued by falling EC50 [2], values first:

Row | F [1] [%] | AUC(0-inf) ([1]; po, gavage 10 mg/kg) [ng·h/mL] | AUC(0-t) ([1]; po, gavage 10 mg/kg) [ng·h/mL] | Cmax ([1]; po, gavage 10 mg/kg) [ng/mL] | Tmax ([1]; po, gavage 10 mg/kg) [min] | half-life ([1]; po, gavage 10 mg/kg) [h] | EC50 [2] [nM] | Maximum agonist rate (%) [2] [%] | Kp at 2 h [4] | Kp at 4 h [4] | SMILES | other results
7 | – | – | – | – | – | – | 180 | 33.2 | – | – | Cc1cc2c(c(C)c1NC(=O)CC1(C)CC1)CCN(c1ccc(Cl)cc1)C2 [Compound W] | –
8 | – | – | – | – | – | – | 94 | 48.65 | – | – | Cc1cc2c(c(C)c1NC(=O)CC1(C)CC1)CCN(c1cccc(F)c1)C2 [Compound Z] | –
9 | – | – | – | – | – | – | 72 | 28.94 | – | – | Cc1cc2c(c(C)c1NC(=O)CC1(C)CC1)CCN(c1ccc(I)cc1)C2 [Compound X] | –
10 | 83.77 | 30900 | 5990 | 315 | 520 | 84.3 | 34 | 38.22 | 6.4 | 5.96 | Cc1cc2c(c(C)c1NC(=O)CC1(C)CC1)CCN(c1ccc(C(F)(F)F)cc1)C2 [Compound P] | AUC(0-inf) ([1]; intravenous 0.5 mg/kg): 383 ng·h/mL; AUC(0-t) ([1]; intravenous 0.5 mg/kg): 357 ng·h/mL; Cmax ([1]; intravenous 0.5 mg/kg): 382 ng/mL; Tmax ([1]; intravenous 0.5 mg/kg): 4.8 min; half-life ([1]; intravenous 0.5 mg/kg): 2.67 h
